Test results published in ChEMBL document CHEMBL1909046, “DrugMatrix in vitro pharmacology data”.

Tested on: not listed separately
Experiment: DRUGMATRIX: Leukotriene, BLT (LTB4) radioligand binding (ligand: [3H]LTB4)
Assay type: cell membranes, Membrane
Conditions: u-937; Not Active = under 50% inhibition at 10 µM

| Compound | IC50 | Ki |
| --- | --- | --- |
| CN(C)[C@@H]1C(O)=C(C(N)=O)C(=O)[C@@]2(O)C(O)=C3C(=O)c4c(O)cccc4[C@@](C)(O)[C@H]3[C@H](O)[C@@H]12 [OXYTETRACYCLINE] | Not Active | Not Active |
| CC(=O)CCCCn1c(=O)c2c(ncn2C)n(C)c1=O [PENTOXIFYLLINE] | Not Active | Not Active |

Molecular target: T1, Caspase-1 (Homo sapiens, UniProt P29466);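 also: Caspase-1 enzyme inhibition assay with a peptide substrate; in other assays of this panel Not Active means under 50% inhibition at 10 µM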
T1 sequence (P29466 whole entry): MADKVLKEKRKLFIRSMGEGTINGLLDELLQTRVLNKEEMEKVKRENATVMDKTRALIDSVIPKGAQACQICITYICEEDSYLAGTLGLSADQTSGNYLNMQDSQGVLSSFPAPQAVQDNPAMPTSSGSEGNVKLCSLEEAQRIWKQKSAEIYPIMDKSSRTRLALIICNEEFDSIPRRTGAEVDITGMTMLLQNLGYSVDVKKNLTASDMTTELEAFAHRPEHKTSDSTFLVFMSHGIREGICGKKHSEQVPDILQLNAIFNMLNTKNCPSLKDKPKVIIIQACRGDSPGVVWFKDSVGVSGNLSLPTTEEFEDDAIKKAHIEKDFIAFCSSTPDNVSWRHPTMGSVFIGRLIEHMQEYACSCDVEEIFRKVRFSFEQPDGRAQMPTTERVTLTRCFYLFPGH
Experiment: not given
Design: species or system Escherichia coli
Conditions: not given

| Compound | IC50 |
| --- | --- |
| CN(C)[C@@H]1C(O)=C(C(N)=O)C(=O)[C@@]2(O)C(O)=C3C(=O)c4c(O)cccc4[C@@](C)(O)[C@H]3[C@H](O)[C@@H]12 [OXYTETRACYCLINE] | Not Active |
| CC(=O)CCCCn1c(=O)c2c(ncn2C)n(C)c1=O [PENTOXIFYLLINE] | Not Active |

Molecular target: T2, Cathepsin G (Homo sapiens, UniProt P08311);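 also: inhibition of Cathepsin G enzyme activity, tested on an AMC-conjugated peptide substrate; in other assays of this panel Not Active means under 50% inhibition at 10 µM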
T2 sequence (P08311 whole entry): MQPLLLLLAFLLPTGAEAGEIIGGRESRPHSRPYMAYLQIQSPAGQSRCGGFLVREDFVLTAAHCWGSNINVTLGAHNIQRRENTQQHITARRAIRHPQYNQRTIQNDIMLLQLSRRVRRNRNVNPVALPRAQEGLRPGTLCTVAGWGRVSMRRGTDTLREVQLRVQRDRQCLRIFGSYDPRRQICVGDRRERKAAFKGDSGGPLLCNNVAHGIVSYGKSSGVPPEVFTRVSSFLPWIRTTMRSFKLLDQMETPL
Experiment: not given
Assay type: tissue-based
Conditions: neutrophil

| Compound | IC50 |
| --- | --- |
| CN(C)[C@@H]1C(O)=C(C(N)=O)C(=O)[C@@]2(O)C(O)=C3C(=O)c4c(O)cccc4[C@@](C)(O)[C@H]3[C@H](O)[C@@H]12 [OXYTETRACYCLINE] | Not Active |
| CC(=O)CCCCn1c(=O)c2c(ncn2C)n(C)c1=O [PENTOXIFYLLINE] | Not Active |

Molecular target: T3, D(4) dopamine receptor (Homo sapiens, UniProt P21917)
T3 sequence (P21917 whole entry): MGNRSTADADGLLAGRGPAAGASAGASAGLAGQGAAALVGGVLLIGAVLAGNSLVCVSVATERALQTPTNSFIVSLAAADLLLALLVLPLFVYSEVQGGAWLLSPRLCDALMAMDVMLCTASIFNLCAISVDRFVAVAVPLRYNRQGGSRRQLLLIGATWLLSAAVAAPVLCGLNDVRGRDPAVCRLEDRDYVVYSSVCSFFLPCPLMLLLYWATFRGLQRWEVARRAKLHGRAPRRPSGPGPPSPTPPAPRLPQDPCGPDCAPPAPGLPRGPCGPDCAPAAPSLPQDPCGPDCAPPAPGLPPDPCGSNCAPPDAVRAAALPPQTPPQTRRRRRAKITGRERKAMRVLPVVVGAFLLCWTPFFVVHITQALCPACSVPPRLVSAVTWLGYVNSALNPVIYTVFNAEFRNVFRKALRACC
Experiment: DRUGMATRIX: Dopamine D4.2 radioligand binding (ligand: [3H] Spiperone)
Assay type: cell membranes, CHO-K1, Membrane
Conditions: cho-k1; Not Active = under 50% inhibition at 10 µM

| Compound | IC50 |
| --- | --- |
| CN(C)[C@@H]1C(O)=C(C(N)=O)C(=O)[C@@]2(O)C(O)=C3C(=O)c4c(O)cccc4[C@@](C)(O)[C@H]3[C@H](O)[C@@H]12 [OXYTETRACYCLINE] | Not Active |
| CC(=O)CCCCn1c(=O)c2c(ncn2C)n(C)c1=O [PENTOXIFYLLINE] | Not Active |

Tested on: not listed separately
Experiment: DRUGMATRIX: beta-Lactamase enzyme inhibition (substrate: Nitrocefin)
Design: species or system Bacillus cereus
Conditions: Not Active = under 50% inhibition at 10 µM

| Compound | IC50 | Ki |
| --- | --- | --- |
| CN(C)[C@@H]1C(O)=C(C(N)=O)C(=O)[C@@]2(O)C(O)=C3C(=O)c4c(O)cccc4[C@@](C)(O)[C@H]3[C@H](O)[C@@H]12 [OXYTETRACYCLINE] | Not Active | Not Active |
| CC(=O)CCCCn1c(=O)c2c(ncn2C)n(C)c1=O [PENTOXIFYLLINE] | Not Active | Not Active |

Tested on: not listed separately
Experiment: DRUGMATRIX: Purinergic P2X radioligand binding (ligand: [3H] alpha, beta-Methylene-ATP)
Assay type: cell membranes, Oryctolagus cuniculus, New Zealand albino, Urinary bladder, Membrane
Conditions: Not Active = under 50% inhibition at 10 µM

| Compound | IC50 | Ki |
| --- | --- | --- |
| CN(C)[C@@H]1C(O)=C(C(N)=O)C(=O)[C@@]2(O)C(O)=C3C(=O)c4c(O)cccc4[C@@](C)(O)[C@H]3[C@H](O)[C@@H]12 [OXYTETRACYCLINE] | Not Active | Not Active |
| CC(=O)CCCCn1c(=O)c2c(ncn2C)n(C)c1=O [PENTOXIFYLLINE] | Not Active | Not Active |

Molecular target: Beta-1 adrenergic receptor (Homo sapiens, UniProt P08588)
Sequence (P08588 whole entry): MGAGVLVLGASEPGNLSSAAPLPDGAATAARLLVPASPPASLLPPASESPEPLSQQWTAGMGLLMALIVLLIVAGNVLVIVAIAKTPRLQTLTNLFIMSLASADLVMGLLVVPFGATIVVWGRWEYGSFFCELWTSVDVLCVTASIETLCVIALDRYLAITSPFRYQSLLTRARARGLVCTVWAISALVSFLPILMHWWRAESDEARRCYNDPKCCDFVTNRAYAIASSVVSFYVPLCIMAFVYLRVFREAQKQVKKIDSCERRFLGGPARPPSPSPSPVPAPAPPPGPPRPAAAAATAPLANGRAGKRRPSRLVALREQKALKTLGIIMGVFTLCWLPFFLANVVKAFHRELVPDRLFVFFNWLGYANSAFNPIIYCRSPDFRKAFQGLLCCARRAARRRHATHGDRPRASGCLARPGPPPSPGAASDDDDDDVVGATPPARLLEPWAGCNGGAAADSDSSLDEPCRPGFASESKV
Experiment: DRUGMATRIX: Adrenergic beta1 radioligand binding (ligand: [125I] Cyanopindolol)
Assay type: cell membranes, CHO-K1, Membrane
Conditions: cho-k1; Not Active = under 50% inhibition at 10 µM

| Compound | IC50 |
| --- | --- |
| CN(C)[C@@H]1C(O)=C(C(N)=O)C(=O)[C@@]2(O)C(O)=C3C(=O)c4c(O)cccc4[C@@](C)(O)[C@H]3[C@H](O)[C@@H]12 [OXYTETRACYCLINE] | Not Active |
| CC(=O)CCCCn1c(=O)c2c(ncn2C)n(C)c1=O [PENTOXIFYLLINE] | Not Active |

Tested on: not listed separately
Experiment: DRUGMATRIX: Sigma2 radioligand binding (ligand: [3H] Ifenprodil)
Assay type: cell membranes, Rattus norvegicus, Wistar, Brain, Membrane
Conditions: Not Active = under 50% inhibition at 10 µM

| Compound | IC50 | Ki |
| --- | --- | --- |
| CN(C)[C@@H]1C(O)=C(C(N)=O)C(=O)[C@@]2(O)C(O)=C3C(=O)c4c(O)cccc4[C@@](C)(O)[C@H]3[C@H](O)[C@@H]12 [OXYTETRACYCLINE] | Not Active | Not Active |
| CC(=O)CCCCn1c(=O)c2c(ncn2C)n(C)c1=O [PENTOXIFYLLINE] | Not Active | Not Active |

Molecular target: Mu-type opioid receptor (Homo sapiens, UniProt P35372)
Sequence (P35372 whole entry): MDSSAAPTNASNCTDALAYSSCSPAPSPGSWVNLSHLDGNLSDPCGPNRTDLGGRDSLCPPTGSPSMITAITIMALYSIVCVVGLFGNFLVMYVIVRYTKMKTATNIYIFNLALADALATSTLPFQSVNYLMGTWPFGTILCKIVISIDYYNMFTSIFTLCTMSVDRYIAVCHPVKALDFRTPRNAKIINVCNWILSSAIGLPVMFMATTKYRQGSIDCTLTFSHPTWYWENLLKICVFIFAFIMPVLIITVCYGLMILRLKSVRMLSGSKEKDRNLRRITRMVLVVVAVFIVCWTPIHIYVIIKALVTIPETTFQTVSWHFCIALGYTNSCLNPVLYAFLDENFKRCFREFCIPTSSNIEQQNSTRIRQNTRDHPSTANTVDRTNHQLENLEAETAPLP
Experiment: DRUGMATRIX: Opiate mu (OP3, MOP) radioligand binding (ligand: [3H] Diprenorphine)
Assay type: cell membranes, CHO-K1, Membrane
Conditions: cho-k1; Not Active = under 50% inhibition at 10 µM

| Compound | IC50 |
| --- | --- |
| CN(C)[C@@H]1C(O)=C(C(N)=O)C(=O)[C@@]2(O)C(O)=C3C(=O)c4c(O)cccc4[C@@](C)(O)[C@H]3[C@H](O)[C@@H]12 [OXYTETRACYCLINE] | Not Active |
| CC(=O)CCCCn1c(=O)c2c(ncn2C)n(C)c1=O [PENTOXIFYLLINE] | Not Active |

Molecular target: T4, 5-hydroxytryptamine receptor 2C (Homo sapiens, UniProt P28335)
T4 sequence (P28335 whole entry): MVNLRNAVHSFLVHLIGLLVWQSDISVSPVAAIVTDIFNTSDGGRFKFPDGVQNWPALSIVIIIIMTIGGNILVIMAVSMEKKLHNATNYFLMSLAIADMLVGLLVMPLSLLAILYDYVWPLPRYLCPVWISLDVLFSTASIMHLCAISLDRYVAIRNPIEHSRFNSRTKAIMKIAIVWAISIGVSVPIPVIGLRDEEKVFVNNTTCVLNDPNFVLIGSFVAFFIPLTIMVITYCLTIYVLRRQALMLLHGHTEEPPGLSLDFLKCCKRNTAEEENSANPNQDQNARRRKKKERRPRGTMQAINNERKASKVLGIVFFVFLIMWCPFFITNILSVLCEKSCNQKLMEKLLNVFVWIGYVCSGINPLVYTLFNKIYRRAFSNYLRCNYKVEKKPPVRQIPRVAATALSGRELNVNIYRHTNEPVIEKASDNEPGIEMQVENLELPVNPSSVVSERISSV
Experiment: DRUGMATRIX: Serotonin (5-Hydroxytryptamine) 5-HT2C radioligand binding (ligand: [3H] Mesulergine)
Assay type: cell membranes, CHO-K1, Membrane
Conditions: cho-k1; Not Active = under 50% inhibition at 10 µM

| Compound | IC50 |
| --- | --- |
| CN(C)[C@@H]1C(O)=C(C(N)=O)C(=O)[C@@]2(O)C(O)=C3C(=O)c4c(O)cccc4[C@@](C)(O)[C@H]3[C@H](O)[C@@H]12 [OXYTETRACYCLINE] | Not Active |
| CC(=O)CCCCn1c(=O)c2c(ncn2C)n(C)c1=O [PENTOXIFYLLINE] | Not Active |

Molecular target: Epidermal growth factor receptor (Homo sapiens, UniProt P00533)
Sequence (P00533 whole entry): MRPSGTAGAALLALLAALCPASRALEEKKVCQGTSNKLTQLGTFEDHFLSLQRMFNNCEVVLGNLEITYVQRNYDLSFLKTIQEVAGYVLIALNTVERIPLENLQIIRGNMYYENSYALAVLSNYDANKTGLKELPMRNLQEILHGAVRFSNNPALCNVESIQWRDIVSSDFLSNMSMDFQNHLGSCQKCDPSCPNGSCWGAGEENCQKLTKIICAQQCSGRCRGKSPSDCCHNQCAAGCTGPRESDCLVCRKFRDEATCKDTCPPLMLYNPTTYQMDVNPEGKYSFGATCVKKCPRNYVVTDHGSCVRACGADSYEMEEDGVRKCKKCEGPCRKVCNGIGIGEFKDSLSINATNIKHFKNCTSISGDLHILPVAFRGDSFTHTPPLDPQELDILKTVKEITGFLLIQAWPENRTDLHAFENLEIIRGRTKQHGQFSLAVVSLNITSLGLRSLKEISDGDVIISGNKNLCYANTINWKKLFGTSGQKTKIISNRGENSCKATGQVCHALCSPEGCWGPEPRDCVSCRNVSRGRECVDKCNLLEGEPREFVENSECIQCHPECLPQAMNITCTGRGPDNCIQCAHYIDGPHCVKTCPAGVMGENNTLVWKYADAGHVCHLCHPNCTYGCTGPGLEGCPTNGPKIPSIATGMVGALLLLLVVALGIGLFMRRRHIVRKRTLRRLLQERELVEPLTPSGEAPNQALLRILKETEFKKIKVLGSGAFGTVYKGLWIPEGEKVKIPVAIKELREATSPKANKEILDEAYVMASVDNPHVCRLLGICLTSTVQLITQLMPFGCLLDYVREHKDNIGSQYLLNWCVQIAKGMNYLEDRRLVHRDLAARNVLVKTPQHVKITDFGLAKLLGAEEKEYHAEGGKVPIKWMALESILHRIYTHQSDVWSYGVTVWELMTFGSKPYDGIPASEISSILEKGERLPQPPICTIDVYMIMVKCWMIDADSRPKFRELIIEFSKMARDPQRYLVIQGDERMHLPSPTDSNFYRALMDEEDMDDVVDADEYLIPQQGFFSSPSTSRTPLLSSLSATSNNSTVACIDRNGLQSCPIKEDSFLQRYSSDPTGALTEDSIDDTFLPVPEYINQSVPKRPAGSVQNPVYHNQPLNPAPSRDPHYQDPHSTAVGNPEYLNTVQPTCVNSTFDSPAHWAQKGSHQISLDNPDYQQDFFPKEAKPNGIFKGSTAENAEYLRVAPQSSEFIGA
Experiment: DRUGMATRIX: Protein Tyrosine Kinase, EGF Receptor enzyme inhibition (substrate: Poly(Glu:Tyr))
Assay type: cell-based, Insect cells
Conditions: insect cells; Not Active = under 50% inhibition at 10 µM

| Compound | IC50 |
| --- | --- |
| CN(C)[C@@H]1C(O)=C(C(N)=O)C(=O)[C@@]2(O)C(O)=C3C(=O)c4c(O)cccc4[C@@](C)(O)[C@H]3[C@H](O)[C@@H]12 [OXYTETRACYCLINE] | Not Active |
| CC(=O)CCCCn1c(=O)c2c(ncn2C)n(C)c1=O [PENTOXIFYLLINE] | Not Active |

Molecular target: Melanocortin receptor 4 (Homo sapiens, UniProt P32245); also: in other assays of this panel Not Active means under 50% inhibition at 10 µM
Sequence (P32245 whole entry): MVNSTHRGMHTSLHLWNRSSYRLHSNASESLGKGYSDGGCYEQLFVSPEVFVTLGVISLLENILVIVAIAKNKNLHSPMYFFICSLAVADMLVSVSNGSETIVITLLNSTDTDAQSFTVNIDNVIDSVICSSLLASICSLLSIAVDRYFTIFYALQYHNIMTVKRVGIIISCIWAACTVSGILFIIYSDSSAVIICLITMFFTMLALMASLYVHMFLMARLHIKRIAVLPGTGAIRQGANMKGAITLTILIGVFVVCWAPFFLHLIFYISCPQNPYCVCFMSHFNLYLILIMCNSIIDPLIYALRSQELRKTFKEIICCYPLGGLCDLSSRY
Experiment: not given
Assay type: cell membranes, Membrane
Conditions: hek293

| Compound | IC50 |
| --- | --- |
| CN(C)[C@@H]1C(O)=C(C(N)=O)C(=O)[C@@]2(O)C(O)=C3C(=O)c4c(O)cccc4[C@@](C)(O)[C@H]3[C@H](O)[C@@H]12 [OXYTETRACYCLINE] | Not Active |
| CC(=O)CCCCn1c(=O)c2c(ncn2C)n(C)c1=O [PENTOXIFYLLINE] | Not Active |

Molecular target: Tyrosine-protein kinase Fyn (Homo sapiens, UniProt P06241);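 also: enzymatic inhibition of Fyn kinase activity measured with Poly(Glu:Tyr) as the phosphorylation substrate; in other assays of this panel Not Active means under 50% inhibition at 10 µM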
Sequence (P06241 whole entry): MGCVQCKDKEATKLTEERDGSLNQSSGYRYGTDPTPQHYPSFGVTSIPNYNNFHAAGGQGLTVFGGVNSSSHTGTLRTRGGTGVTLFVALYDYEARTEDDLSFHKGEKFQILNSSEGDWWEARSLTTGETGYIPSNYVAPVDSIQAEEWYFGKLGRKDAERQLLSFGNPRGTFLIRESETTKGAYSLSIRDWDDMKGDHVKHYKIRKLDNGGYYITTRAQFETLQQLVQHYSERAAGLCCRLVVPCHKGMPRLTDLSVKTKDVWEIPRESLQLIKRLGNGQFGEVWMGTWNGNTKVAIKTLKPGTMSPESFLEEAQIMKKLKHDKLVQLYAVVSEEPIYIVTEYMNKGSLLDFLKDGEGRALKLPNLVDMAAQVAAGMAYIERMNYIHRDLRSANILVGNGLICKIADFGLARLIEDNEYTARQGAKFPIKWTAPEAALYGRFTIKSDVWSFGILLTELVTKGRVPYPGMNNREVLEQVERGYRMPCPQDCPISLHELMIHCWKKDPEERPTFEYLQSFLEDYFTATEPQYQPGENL
Experiment: biochemical
Assay type: cell-based, Insect cells
Conditions: insect cells

| Compound | IC50 |
| --- | --- |
| CN(C)[C@@H]1C(O)=C(C(N)=O)C(=O)[C@@]2(O)C(O)=C3C(=O)c4c(O)cccc4[C@@](C)(O)[C@H]3[C@H](O)[C@@H]12 [OXYTETRACYCLINE] | Not Active |
| CC(=O)CCCCn1c(=O)c2c(ncn2C)n(C)c1=O [PENTOXIFYLLINE] | Not Active |

Molecular target: Melanocortin receptor 5 (Homo sapiens, UniProt P33032); also: in other assays of this panel Not Active means under 50% inhibition at 10 µM
Sequence (P33032 whole entry): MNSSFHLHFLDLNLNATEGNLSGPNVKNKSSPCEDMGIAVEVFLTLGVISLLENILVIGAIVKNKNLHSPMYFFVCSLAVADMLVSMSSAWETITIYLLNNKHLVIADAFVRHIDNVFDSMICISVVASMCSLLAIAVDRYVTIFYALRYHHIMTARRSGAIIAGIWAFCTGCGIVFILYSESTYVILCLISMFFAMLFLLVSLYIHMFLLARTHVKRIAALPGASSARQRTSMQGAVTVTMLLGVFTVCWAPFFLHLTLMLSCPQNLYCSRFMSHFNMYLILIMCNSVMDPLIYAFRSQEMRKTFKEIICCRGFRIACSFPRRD
Experiment: not given
Assay type: cell membranes, HEK293, Membrane
Conditions: hek293

| Compound | IC50 |
| --- | --- |
| CN(C)[C@@H]1C(O)=C(C(N)=O)C(=O)[C@@]2(O)C(O)=C3C(=O)c4c(O)cccc4[C@@](C)(O)[C@H]3[C@H](O)[C@@H]12 [OXYTETRACYCLINE] | Not Active |
| CC(=O)CCCCn1c(=O)c2c(ncn2C)n(C)c1=O [PENTOXIFYLLINE] | Not Active |

Molecular target: T5, Cysteinyl leukotriene receptor 1 (Homo sapiens, UniProt Q9Y271); also: in other assays of this panel Not Active means under 50% inhibition at 10 µM
T5 sequence (Q9Y271 whole entry): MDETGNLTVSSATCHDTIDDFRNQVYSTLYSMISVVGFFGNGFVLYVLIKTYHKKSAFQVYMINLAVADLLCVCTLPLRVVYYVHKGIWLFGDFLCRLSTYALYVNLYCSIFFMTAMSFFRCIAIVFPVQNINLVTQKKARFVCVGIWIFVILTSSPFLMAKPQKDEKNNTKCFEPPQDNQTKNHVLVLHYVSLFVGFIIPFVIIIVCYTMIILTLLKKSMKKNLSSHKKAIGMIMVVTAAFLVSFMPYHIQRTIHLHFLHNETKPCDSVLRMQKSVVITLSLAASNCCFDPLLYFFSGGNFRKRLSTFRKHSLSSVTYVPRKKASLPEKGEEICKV
Experiment: not given
Assay type: cell membranes, CHO-K1, Membrane
Conditions: cho-k1

| Compound | IC50 |
| --- | --- |
| CN(C)[C@@H]1C(O)=C(C(N)=O)C(=O)[C@@]2(O)C(O)=C3C(=O)c4c(O)cccc4[C@@](C)(O)[C@H]3[C@H](O)[C@@H]12 [OXYTETRACYCLINE] | Not Active |
| CC(=O)CCCCn1c(=O)c2c(ncn2C)n(C)c1=O [PENTOXIFYLLINE] | Not Active |

Molecular target: 5-hydroxytryptamine receptor 1B (Rattus norvegicus, UniProt P28564); also: in other assays of this panel Not Active means under 50% inhibition at 10 µM
Sequence (P28564 whole entry): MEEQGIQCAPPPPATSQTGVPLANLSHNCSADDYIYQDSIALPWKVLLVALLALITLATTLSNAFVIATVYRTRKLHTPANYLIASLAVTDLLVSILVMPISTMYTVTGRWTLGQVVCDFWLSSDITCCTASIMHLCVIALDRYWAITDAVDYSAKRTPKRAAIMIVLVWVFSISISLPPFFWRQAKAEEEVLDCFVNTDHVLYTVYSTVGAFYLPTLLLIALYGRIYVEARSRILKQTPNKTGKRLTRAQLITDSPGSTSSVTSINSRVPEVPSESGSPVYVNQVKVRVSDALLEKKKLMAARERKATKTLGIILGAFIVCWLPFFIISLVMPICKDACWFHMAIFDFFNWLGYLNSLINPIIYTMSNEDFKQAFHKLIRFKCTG
Experiment: not given
Assay type: cell membranes, Wistar, Cerebral cortex, Membrane
Conditions: not given

| Compound | IC50 |
| --- | --- |
| CN(C)[C@@H]1C(O)=C(C(N)=O)C(=O)[C@@]2(O)C(O)=C3C(=O)c4c(O)cccc4[C@@](C)(O)[C@H]3[C@H](O)[C@@H]12 [OXYTETRACYCLINE] | Not Active |
| CC(=O)CCCCn1c(=O)c2c(ncn2C)n(C)c1=O [PENTOXIFYLLINE] | Not Active |
